This is an account of results in ChEMBL document CHEMBL2150986, “Synthesis and biological evaluation of 1-benzylidene-3,4-dihydronaphthalen-2-one as a new class of microtubule-targeting agents” (J Med Chem, 2012).

Data set [1] concerns Mus musculus. Put plainly: Toxicity in ICR mouse assessed as mortality at 50 mg/kg, ip administered on day 1. The class given is organism-based. Also noted: dose 50 mg/kg, route intraperitoneal. Conditions: in vivo.
The next data set relates to CCRF-CEM. Nature of the data set: Cytotoxicity against human CEM cells after 72 hrs by MTT assay. The format is functional, cell-based. On the technique in general: Tetrazolium dyes change colour on reduction, which living cells bring about.
In data set [2] the test system is Mus musculus. Nature of the data set: Toxicity in nude BALB/c mouse xenografted with human HT-29 cells assessed as mortality at 30 mg/kg, ip qd after 21 days. The class given is organism-based. Also noted: dose 30 mg/kg, route intraperitoneal. The following applies: in vivo, 504 h. On the technique in general: In xenograft studies the graft and the host belong to different species.

Data set [3] relates to Mus musculus. Put plainly: Toxicity in nude BALB/c mouse xenografted with human HT-29 cells assessed as mortality at 50 mg/kg, ip qd after 21 days. The class given is organism-based. The following applies: in vivo, 504 h. More on the design: dose 50 mg/kg, route intraperitoneal.
Data set [4] has as its system HT-29. Nature of the data set: Antitumor activity against human HT-29 cells xenografted in nude BALB/c mouse assessed as decrease in tumor volume at 30 mg/kg, ip qd measured on day 21 relative to vehicle-treated control. The format is functional. The following applies: route intraperitoneal.
Data set [5] concerns HT-29. Nature of the data set: Antitumor activity against human HT-29 cells xenografted in nude BALB/c mouse assessed as decrease in tumor volume at 50 mg/kg, ip qd measured on day 21 relative to vehicle-treated control. The class given is functional. The following applies: route intraperitoneal.
Data set [6] concerns Mus musculus. Nature of the data set: Toxicity in nude BALB/c mouse xenografted with human HT-29 cells assessed as body weight change at 30 mg/kg, ip qd after 21 days (reference value: 2.7 g). The class given is organism-based. Also noted: dose 30 mg/kg, route intraperitoneal. Conditions: in vivo, 504 h.
In data set [7] the test system is Mus musculus. Nature of the data set: Toxicity in nude BALB/c mouse xenografted with human HT-29 cells assessed as body weight change at 50 mg/kg, ip qd after 21 days (reference value: 2.7 g). More on the design: dose 50 mg/kg, route intraperitoneal. The following applies: in vivo, 504 h. The class given is organism-based.
For data set [8], the system named is Mus musculus. Nature of the data set: Toxicity in nude BALB/c mouse xenografted with human HT-29 cells assessed as effect on WBC count at 30 mg/kg, ip qd after 21 days (reference value: 25.38 +/- 0.22 x 10^3 mm'-3). The class given is organism-based. Also noted: dose 30 mg/kg, route intraperitoneal. Conditions: in vivo, 504 h.
The test system of data set [9] is Mus musculus. Put plainly: Toxicity in nude BALB/c mouse xenografted with human HT-29 cells assessed as effect on WBC count at 50 mg/kg, ip qd after 21 days (reference value: 25.38 +/- 0.22 x 10^3 mm'-3). The class given is organism-based. Also noted: dose 50 mg/kg, route intraperitoneal. Conditions: in vivo, 504 h.
Data set [10] deals with Mus musculus. Nature of the data set: Toxicity in nude BALB/c mouse xenografted with human HT-29 cells assessed as effect on lymphocyte count at 30 mg/kg, ip qd after 21 day (reference value: 15.88 +/- 0.41 x 10^3 mm'-3). The format is organism-based. Also noted: dose 30 mg/kg, route intraperitoneal. Conditions: in vivo, 504 h.
Data set [11] concerns Mus musculus. Nature of the data set: Toxicity in nude BALB/c mouse xenografted with human HT-29 cells assessed as effect on lymphocyte count at 50 mg/kg, ip qd after 21 days (reference value: 15.88 +/- 0.41 x 10^3 mm'-3). The format is organism-based. Also noted: dose 50 mg/kg, route intraperitoneal. The following applies: in vivo, 504 h.
Data set [12] relates to Mus musculus. Put plainly: Toxicity in nude BALB/c mouse xenografted with human HT-29 cells assessed as effect on platelet count at 30 mg/kg, ip qd after 21 days (reference value: 1509 +/- 34 x 10^3 mm'-3). Also noted: dose 30 mg/kg, route intraperitoneal. The class given is organism-based. The following applies: in vivo, 504 h.
Data set [13] relates to Mus musculus. Nature of the data set: Toxicity in nude BALB/c mouse xenografted with human HT-29 cells assessed as effect on platelet count at 50 mg/kg, ip qd after 21 days (reference value: 1509 +/- 34 x 10^3 mm'-3). The format is organism-based. More on the design: dose 50 mg/kg, route intraperitoneal. The following applies: in vivo, 504 h.
The test system of data set [14] is Mus musculus. Put plainly: Toxicity in nude BALB/c mouse xenografted with human HT-29 cells assessed as effect on ALT level at 30 mg/kg, ip qd after 21 days (reference value: 28 +/- 0.4 IU/L). The class given is organism-based. Also noted: dose 30 mg/kg, route intraperitoneal. Conditions: in vivo, 504 h.
The subject of data set [15] is Mus musculus. Put plainly: Toxicity in nude BALB/c mouse xenografted with human HT-29 cells assessed as effect on ALT level at 50 mg/kg, ip qd after 21 days (reference value: 28 +/- 0.4 IU/L). The class given is organism-based. The following applies: in vivo, 504 h. Also noted: dose 50 mg/kg, route intraperitoneal.
Data set [16] concerns Mus musculus. Put plainly: Toxicity in nude BALB/c mouse xenografted with human HT-29 cells assessed as effect on ALP level at 30 mg/kg, ip qd after 21 days (reference value: 107.6 +/- 0.8 IU/L). The format is organism-based. Also noted: dose 30 mg/kg, route intraperitoneal. Conditions: in vivo, 504 h.
The subject of data set [17] is Mus musculus. Put plainly: Toxicity in nude BALB/c mouse xenografted with human HT-29 cells assessed as effect on ALP level at 50 mg/kg, ip qd after 21 days (reference value: 107.6 +/- 0.8 IU/L). The format is organism-based. Also noted: dose 50 mg/kg, route intraperitoneal. The following applies: in vivo, 504 h.
The test system of data set [18] is Mus musculus. Put plainly: Toxicity in nude BALB/c mouse xenografted with human HT-29 cells assessed as change in kidney weight at 50 mg/kg, ip qd after 21 days relative to vehicle-treated control. The format is organism-based. More on the design: dose 50 mg/kg, route intraperitoneal. Conditions: in vivo, 504 h.
Data set [19] has as its system Mus musculus. Put plainly: Toxicity in nude BALB/c mouse xenografted with human HT-29 cells assessed as change in liver weight at 50 mg/kg, ip qd after 21 days relative to vehicle-treated control. The class given is organism-based. Also noted: dose 50 mg/kg, route intraperitoneal. The following applies: in vivo, 504 h.
Data set [20] deals with Mus musculus. Nature of the data set: Toxicity in nude BALB/c mouse xenografted with human HT-29 cells assessed as change in spleen weight at 50 mg/kg, ip qd after 21 days relative to vehicle-treated control. Conditions: in vivo, 504 h. The format is organism-based. Also noted: dose 50 mg/kg, route intraperitoneal.
In data set [21] the test system is Mus musculus. Put plainly: Toxicity in ICR mouse assessed as body weight loss at 50 mg/kg, ip administered on day 1 measured for 10 days relative to vehicle-treated control. Also noted: dose 50 mg/kg, route intraperitoneal. The format is organism-based. Conditions: in vivo, 240 h.
The next data set has as its system HCT-116. Put plainly: cells. Conditions: Homo sapiens, HCT-116, 72 h.
The next data set relates to MDA-MB-435. Nature of the data set: cells. The following applies: Homo sapiens, MDA-MB-435, 72 h.

As a reminder, the IC50 is the concentration that gives 50% inhibition. A lower IC50 goes with inhibition by little substance. What is called T/C is the ratio of treated to control.

Description for MDA-MB-435: Cytotoxicity against human MDA-MB-435 cells after 72 hrs by MTT assay

Turning to `COc1ccc(/C=C\c2cc(OC)c(OC)c(OC)c2)cc1O` [COMBRETASTATIN A4], the Activity entry in the data set on Mus musculus [1] is reported as “Non-toxic”; in the data set with Mus musculus [2] it was “Non-toxic”; with Mus musculus [3], “Non-toxic”; in the data set on Mus musculus [6], 1.7 g; with Mus musculus [7] it was 1.8 g; in the data set with Mus musculus [8], 19.34 ×10³ /mm3. Also, the Activity in the data set with Mus musculus [9] came to 12.09 ×10³ /mm3; in the data set with Mus musculus [10], 10.62 ×10³ /mm3; with Mus musculus [11] it was 4.14 ×10³ /mm3; in the data set on Mus musculus [12] it was 1923 ×10³ /mm3; in the data set on Mus musculus [13], 2206 ×10³ /mm3; in the data set with Mus musculus [14] it was 25 IU/L. Further, the Activity in the data set on Mus musculus [15] is 66.3 IU/L; with Mus musculus [16], 105.3 IU/L; in the data set with Mus musculus [17], 149.3 IU/L; in the data set with Mus musculus [18] it was “Toxic”; in the data set on Mus musculus [19], “Toxic”; in the data set with Mus musculus [20] it was “Toxic”. Further, in the data set on Mus musculus [21], the Activity entry is listed as “Toxic”. Further, the IC50 with CCRF-CEM, in the data set on HCT-116 and in the data set on MDA-MB-435 was 1 nM each time. Moreover, the T/C worked out at 53% in the data set on HT-29 [4] and 47% with HT-29 [5].
